In PMC5000766, “Inhibitory Effect of 2,3,5,6-Tetrafluoro-4-[4-(aryl)-1H-1,2,3-triazol-1-yl]benzenesulfonamide Derivatives on HIV Reverse Transcriptase Associated RNase H Activities” (International Journal of Molecular Sciences, 2016) one finds melting point, IC50 and cellular cytotoxicity data, which are given here for seven compounds.

Data set [1] deals with T1, HIV-1 RT-associated RNase H (Human immunodeficiency virus type 1 group M subtype B, UniProt P04585).
T1 construct: The recombinant HIV-1 RT protein; His tag; made in house; host or cells: E. coli strain M15
The data set can be described thus: HIV-1 RNase H polymerase-independent cleavage assay. The format is biochemical. The conditions noted are these: compound concentration required to inhibit the HIV-1 RNase H activity by 50%; recombinant HIV-1 RT.

The test system of another data set is human MT-4 cells. The data set can be described thus: Cellular cytotoxicity in MT-4 cells. The conditions noted are these: preliminary finding.

Each structure is given as a SMILES string. Bounds are passed on as bounds.

The melting point is the temperature, or range, at which the solid turns liquid. Usually IC50 stands for the concentration that gives 50% inhibition.

With `CCCCCc1ccc(-c2cn(-c3ccc(S(N)(=O)=O)cc3)nn2)cc1` [Compound 9d], the melting point lay within 253 to 256 °C.

For the compound `NS(=O)(=O)c1ccc(-n2cc(CO)nn2)cc1` [Compound 9b], the melting point fell in the range of 195 to 197 °C. Further, the IC50 in data set [1] was over 100 µM. The compound `NS(=O)(=O)c1ccc(-n2cc(-c3ccccc3)nn2)cc1` [Compound 9c] displayed a melting point of 260 to 261 °C. In data set [1], the IC50 was over 100 µM. `CCOC(=O)C(=O)CC(=O)/C=C/c1cccn1Cc1ccccc1Cl` [RDS1759, reference compound]: the half-inhibitory concentration (IC50) in data set [1] stood at 7 ± 1.5 µM. In turn, `NS(=O)(=O)c1c(F)c(F)c(-n2cc(CO)nn2)c(F)c1F` [Compound 10b] returned a melting point of 133 to 134 °C.

In the case of `NCc1cn(-c2ccc(S(N)(=O)=O)cc2)nn1` [Compound 9a], the half-inhibitory concentration (IC50) in data set [1] is over 100 µM. Regarding `CCCCCc1ccc(-c2cn(-c3c(F)c(F)c(S(N)(=O)=O)c(F)c3F)nn2)cc1` [Compound 10d], the melting point lay within 197 to 198 °C. Besides, the cellular cytotoxicity in the data set with human MT-4 cells is over 7 µM.
